Columns and labels:
Format in all cases: cell-based
[1] = molecular target: T1, mutant integrin CD11bE320A/CD18 (Homo sapiens, UniProt P11215, E336A); assay: HTS cell adhesion assay, K562 E320A cells on immobilized fibrinogen; settings: five point dose-response
T1 construct: expressed in transfected cells; host or cells: K562 (ATCC)
Summary of the method: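 K562 cells expressing the indicated CD11b/CD18 integrin were added to wells coated with 15 μg/mL fibrinogen and incubated with compound for 30 min at 37 °C in Ca2+/Mg2+ buffer. Non-adherent cells were removed by plate inversion. Adherent cells were fixed, stained with DAPI and counted by high-content imaging, scaled from 0% (1 mM Ca2+/Mg2+) to 100% (Mn2+ activation).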

[2] = molecular target: T2, integrin CD11c/CD18 (Homo sapiens, UniProt P20702); assay: HTS cell adhesion assay, K562 CD11c/CD18 cells on immobilized fibrinogen; settings: K562 CD11c/CD18 cells, adhesion to fibrinogen, dose-response
T2 construct: expressed in transfected cells; host or cells: K562 (ATCC)
Protocol: (§1) K562 cells stably expressing CD11c/CD18 (K562 CD11c/CD18) were generated similarly. Mutant CD11bE320A has been described previously. K562 cells stably transfected with mutant integrin CD11bE320A/CD18 (K562 E320A) were generated according to literature protocols. All cell lines were maintained in Iscove's Modified Dulbecco's Medium (IMDM) supplemented with 10% heat-inactivated fetal bovine serum, 50 IU/mL penicillin and streptomycin and 0.5 mg/mL G418.
(§2) Cell adhesion assays with immobilized ligands were performed using the general protocol previously described and as illustrated in FIG. 1 [33]. Assays with all different K562 cell lines (K562, K562 CD11b/CD18, K562 CD11c/CD18 and K562 E320A) were performed in an identical fashion. Briefly, 384-well microplates (Corning 3700) were coated with 15 μg/mL fibrinogen (Fg) ligand in PBS^++ overnight at 4° C. At the same time, anti-CD18 (IB4) mAb was also coated. Subsequently, the coated wells were washed with 1% nonfat milk in TBS at room temperature for 1 hour. Next, the wells were washed 3 times with TBS, and the coated microplates were used in the HTS assays.
(§3) K562 CD11b/CD18, K562 CD11bE320A/CD18 and K562 CD11c/CD18 cells were washed with TBS, and cells were transferred to the Fg-coated wells of microplates in the assay buffer (Ca^2+ and Mg^2+ for physiological condition, Mn^2+ as the Positive control). A 1 μL aliquot of the compounds were transferred to each washed well with multichannel pipet from the 384-well plates.
(§4) The assay plates were incubated at 37° C. in the presence of small-molecule compounds for 30 min. To dislodge the non-adherent cell, the assay plates were gently inverted and kept in inverted position for 20 min at room temperature.
(§5) The cells were fixed with 37% formaldehyde in a small volume and the plates were kept inverted for 1 h. Upon the fixation, the solutions in the well were discarded. Next, the cells were fluorescently labeled with DAPI (0.5 μM final in TBS with 0.1% Triton X-100) and the quantitated with “Opera High Content Screening System” (Perkin Elmer).
Cell-adhesion under positive and negative control conditions was used to define the activity scale; signal corresponding to the number of non-small molecule treated cells adherent in activating buffer condition (in the presence of Mn^2+ ions as agonist, PC) was considered maximum (100% binding) and the signal corresponding to the number of non-small molecule treated cells adherent in basal buffer condition (in the presence of 1 mM each of Ca^2+ and Mg^2+, NC) was considered minimum (0% binding). […]
The compounds were diluted in DMSO by the final concentration 10 μM, 5 μM, 2.5 μM, 1.25 μM and 0.625 μM and stocked as sealed in 384-well plates at −80° C.

[3] = molecular target: T3, wild-type integrin CD11b/CD18 (Homo sapiens, UniProt P11215); assay: HTS cell adhesion assay, K562 CD11b/CD18 cells on immobilized fibrinogen
T3 construct: expressed in transfected cells; host or cells: K562 (ATCC)
Protocol: as §1, with “Mutant CD11bE320A has been described previously.” left out
as §2, §3, §4, §5
Cell-adhesion under positive and negative control conditions was used to define the activity scale; signal corresponding to the number of non-small molecule treated cells adherent in activating buffer condition (in the presence of Mn^2+ ions as agonist, PC) was considered maximum (100% binding) and the signal corresponding to the number of non-small molecule treated cells adherent in basal buffer condition (in the presence of 1 mM each of Ca^2+ and Mg^2+, NC) was considered minimum (0% binding).

[4] = Table 3, adhesion to fibrinogen
[5] = Table 4, adhesion to fibrinogen, dose-response
[6] = Table 4, adhesion to fibrinogen

Structure (SMILES): O=C(CN1C(=O)c2ccccc2C1=O)Nc1ccc(-c2nc3ccccc3o2)cc1 [Compound 1255636]
- EC50 [1, 4]: 678 nM
- EC50 CD11c/CD18 ([2]; Table 4): N/A Very Low
- EC50 CD11b/CD18 ([3]; Table 3, adhesion to fibrinogen, 5-point dose-response): Very Low
- EC50 CD11b/CD18 [3, 5]: N/A Very Low

Structure (SMILES): C=CCn1c(SCC(=O)c2[nH]c(C)c(C(=O)OC)c2C)nc2scc(-c3ccc(OC)c(OC)c3)c2c1=O [Compound 1745635]
- EC50 [1, 4]: 3710 nM
- EC50 [1, 6]: 3710 nM
- EC50 CD11c/CD18 ([2]; Table 3): Very low
- EC50 CD11c/CD18 ([2]; Table 4): N/A Very Low
- EC50 CD11b/CD18 [3, 5]: N/A Very Low

Structure (SMILES): O=C(Cn1c(=O)oc2cc(S(=O)(=O)N3CCCC3)ccc21)NC1CCCc2ccccc21 (centres unmarked) [Compound 5308150]
- EC50 [1, 4]: 1260 nM
- EC50 [1, 6]: 1260 nM
- EC50 CD11c/CD18 ([2]; Table 3): Very Low
- EC50 CD11c/CD18 ([2]; Table 4): N/A Very Low
- EC50 CD11b/CD18 [3, 5]: N/A Very Low

— US20180319865A1, “Identification of Novel Small Molecule Beta2 Integrin Agonists” (Rush University Medical Center, priority 2016, published 2018)
